# Like-named read-outs stand apart in the source and are kept apart here.
# Tests used:
# [1] = system: protein expression in AsPC-1 cells; assay: Time-dependent protein expression analysis (1 µM GEM or 1 µM ATRi, 15 min-24 h); format: cell-based, human; settings: GEM
# Protocol: Cell culture medium was replaced 24 h after seeding. […] For time point 0, AsPC-1 cells were treated with a vehicle and lysed immediately. The final DMSO concentration in all experiments was 0.2%.
# LC-MS/MS measurement of non-enriched, TMT-labeled peptides from temporal drug perturbation was carried out on an Orbitrap Fusion Lumos Tribrid instrument (Thermo Scientific) coupled to a micro-flow LC system built by combining a modified Vanquish pump and the autosampler of the Dionex UltiMate 3000 nano HPLC System (Thermo Scientific). Dried peptides were reconstituted in 0.1% formic acid and loaded directly onto an Acclaim PepMap 100 C18 column (2 μm particle size, 1 mm × 150 mm, Thermo Scientific) heated at 55 °C. […] Flow rates of sheath, aux, and sweep gas were kept at 32, 5, and 0, respectively. […] The cycle time between MS1 scans was 1.2 s, with a dynamic exclusion duration of 50 s.
# Peptide and protein identification and quantification of time-series raw data was performed with MaxQuant (v2.1.3.0) using the same sequence information as above, with N-terminal acetylation and oxidized methionine as variable modifications and cysteine carbamidomethylation as fixed modification. All other search parameters were set as default. The resulting proteingroups.txt file was filtered to remove potential contaminants and reversed hits. Corrected TMT reporter channel intensities were median-centered, and ratios were calculated between treatments and their respective time-point controls (Appendix Table S6). Proteins were considered conversely regulated if absolute log2 fold change > 2 by at least one drug and oppositely affected by both drugs (up/down) at 24 h.
# [2] = system: MAP3K6; set-up: method as in Klaeger et al. (2017); settings: lysate 4 cell line mix (Colo205, K-562, MV-4-11, and SK-N-BE(2)), Kinobeads y, ref Klaeger et al. (2017); cited from earlier work
# [3] = system: STK3; set-up: method as in Klaeger et al. (2017); settings: STK3, 4 cell line mix lysate, Kinobeads y, ref Klaeger et al. (2017); cited from earlier work
# [4] = system: PRKCA; set-up: method as in Klaeger et al. (2017); settings: lysate 4 cell line mix (Colo205, K-562, MV-4-11, and SK-N-BE(2)), Kinobeads y, ref Klaeger et al. (2017); cited from earlier work
# [5] = system: PRKAA1; set-up: method as in Klaeger et al. (2017); settings: lysate 4 cell line mix (Colo205, K-562, MV-4-11, and SK-N-BE(2)), Kinobeads y, ref Klaeger et al. (2017); cited from earlier work
# [6] = system: PHKG2; settings: PHKG2, 5 cell line mix lysate, Kinobeads ε, ref Reinecke et al. (2023), cited from earlier work
# [7] = system: MAP3K6; set-up: method as in Reinecke et al. (2023); settings: MAP3K6, 5 cell line mix lysate, Kinobeads ε, ref Reinecke et al. (2023), cited from earlier work
# [8] = system: CAMKK2; set-up: method as in Reinecke et al. (2023); settings: CAMKK2, 5 cell line mix lysate, Kinobeads ε, ref Reinecke et al. (2023), cited from earlier work
# [9] = target: SLK; set-up: method as in Reinecke et al. (2023); settings: 5 cell line mix lysate, Kinobeads ε, ref Reinecke et al. (2023), cited from earlier work
smiles,measurement,setting,value
"Nc1ccn([C@@H]2O[C@H](CO)[C@@H](O)C2(F)F)c(=O)n1 [GEM, Gemcitabine]","Regulation_24h, CLN6 protein expression",[1]; protein CLN6,up
same,"Regulation_24h, E2F6 protein expression",[1]; protein E2F6,up
same,"Regulation_24h, HELZ2 protein expression",[1]; protein HELZ2,up
same,"Regulation_24h, PRKACA protein expression",[1]; protein PRKACA,up
same,"Regulation_24h, RASSF10 protein expression",[1]; protein RASSF10,up
C[C@]12O[C@H](C[C@]1(O)CO)n1c3ccccc3c3c4c(c5c6ccccc6n2c5c31)CNC4=O [Lestaurtinib],EC50,[2],458 nM
same,EC50,[3],39.2 nM
same,EC50,[4],2470 nM
same,EC50,[5],1320 nM
COc1cc(N2CCC(N3CCN(C)CC3)CC2)ccc1Nc1ncc(Cl)c(Nc2ccccc2P(C)(C)=O)n1 [Brigatinib],EC50,[6],199 nM
same,pKDapp,[6],6.71
same,Kd,[6]; read-out: KDapp,193 nM
same,EC50,[7],844 nM
same,pKDapp,[7],6.16
same,Kd,[7]; read-out: KDapp,697 nM
same,EC50,[8],60.9 nM
same,pKDapp,[8],7.39
same,Kd,[8]; read-out: KDapp,40.4 nM
same,Kd,[9]; read-out: KDapp,466 nM
same,EC50,[9],523 nM
same,pKDapp,[9],6.33
